From patent US4875922A, “Pyrimidine derivatives” (Imperial Chemical Industries PLC, priority 1986, dated 1989)

Key:
Maize = experiment: Whole plant screen for plant growth regulator activity, maize (MZ); assay type: in vivo, Maize (Earliking); settings: 4000 ppm (4 kg/ha), visual score after 2-6 weeks
Protocol: Compounds 1 to 3 in Table 1 were tested for plant growth regulator activity against five species for various growth effects relevant to plant growth regulation.
The plant species used in this screen are presented in Table II with the leaf stage at which they were sprayed. Each chemical was applied at 4000 ppm (4 kg/ha in a 1000 l/ha field volume) using a tracksprayer and a SS8004E (Teejet) nozzle.
After spray the plants were grown in a glasshouse with 25° C. day/22° C. night temperatures and supplementary lighting was supplied when necessary (from mercury vapour lamps), to provide a 16 hour photoperiod. The exception to this were the temperate cereals, wheat and barley which were grown in 16° C. day/13° C. night temperatures.
After 2-6 weeks in the glasshouse, depending on the time of year, the plants were visually assessed for morphological characteristics. Formulation blanks were used as controls to assess the plants. […]

Cercospora arachidicola = experiment: Foliar fungal disease control, Cercospora arachidicola (peanut); assay type: in vivo; settings: 100 ppm spray plus root drench (approximately 40 ppm a.i/dry soil), one or two days before inoculation
Wheat = experiment: Whole plant screen for plant growth regulator activity, wheat (WW); assay type: in vivo, Wheat (Timmo); settings: for G = Greening effect / I = Interligular or internodal length reduction / R = Retardation / T = Tillering or side shooting: WW, 4000 ppm (4 kg/ha), visual score after 2-6 weeks; for T = Tillering or side shooting: * = decrease in tillering
Summary of the method: (§1)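 Growth-regulator effects were judged by eye on glasshouse plants 2-6 weeks post-spray (timing varying with season), using formulation blanks for comparison. Application rate was 4000 ppm, equivalent to 4 kg/ha in 1000 l/ha.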

Barley [1] = experiment: Whole plant screen for plant growth regulator activity, barley (BR); assay type: in vivo, Barley (Atem); settings: BR, 4000 ppm (4 kg/ha), visual score after 2-6 weeks; for T = Tillering or side shooting: * = decrease in tillering
Summary of the method: as §1

Apples = experiment: Intermediate Retardant Test, apples, foliar spray compared with root drench; assay type: in vivo, Apples (Red Delicious); settings: 672 h, approximately 28 days, Table IX, read-out: Percentage Reduction in Height of Apples (Compared to formulation blank)
Summary of the method: (§2)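 Overall spray at 500 and 2000 ppm (0.5 and 2 kg/ha^-1 at 1000 l/ha^-1); for apples, a 2000 ppm foliar-only spray was also compared with a 2000 ppm root drench. Rice grew in flooded 4" paddy pots, barley and apples in 4" pots. About 28 days after treatment, height (to top-most ligule, or to apex for apples) was recorded as % reduction versus formulation blank.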

Rice [2] = experiment: Whole plant screen for plant growth regulator activity, rice (RC); assay type: in vivo, Rice (Ishikari); settings: 4000 ppm (4 kg/ha), visual score after 2-6 weeks
Summary of the method: as §1

Tomato = experiment: Whole plant screen for plant growth regulator activity, tomato (TO); assay type: in vivo, Tomato (Ailsa Craig); settings: 4000 ppm (4 kg/ha), visual score after 2-6 weeks
Summary of the method: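 Plant growth regulation scored visually 2–6 weeks post-spray, relative to formulation-blank controls, with growth at 25/22 °C day/night under 16 h light. Treatment: 4000 ppm (4 kg/ha, 1000 l/ha volume) track-sprayed onto Ailsa Craig tomato at the 2–2½ leaf stage, grown singly in 3-inch peat pots.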

Rice [3] = experiment: Intermediate Retardant Test, rice; assay type: in vivo, Rice (Ishikari); settings: Oryza sativa, 672 h, overall spray, approximately 28 days, Table VI, read-out: Percentage Reduction in Height of Rice (Compared to formulation blank)
Summary of the method: as §2

Erysiphe graminis = experiment: Foliar fungal disease control, Erysiphe graminis (barley); assay type: in vivo; settings: 100 ppm spray plus root drench (approximately 40 ppm a.i/dry soil); inoculated 24 hours before treatment
Pyricularia oryzae = assay type: in vivo; settings: 100 ppm spray plus root drench (approximately 40 ppm a.i/dry soil), one or two days before inoculation
Apple [4] = experiment: Whole plant screen for plant growth regulator activity, apple (AP); assay type: in vivo, Apple (Red Delicious); settings: 4000 ppm (4 kg/ha), visual score after 2-6 weeks
Summary of the method: as §1

Puccinia recondita = experiment: Foliar fungal disease control, Puccinia recondita (wheat); assay type: in vivo; settings: 100 ppm spray plus root drench (approximately 40 ppm a.i/dry soil), one or two days before inoculation
Spring Barley = experiment: Intermediate Retardant Test, spring barley; assay type: in vivo, Spring Barley (Atem/kym); settings: Hordeum vulgare, 672 h, overall spray, approximately 28 days, Table VII, read-out: Percentage Reduction in Height of Spring Barley (Compared to formulation blank)
Summary of the method: as §2

Phytophthora infestans = assay type: in vivo; settings: 100 ppm spray plus root drench (approximately 40 ppm a.i/dry soil), one or two days before inoculation
Apple [5] = experiment: Modified Intermediate Retardant Test, apples; assay type: in vivo, Apple (Red Delicious); settings: 2000 g/ha, overall spray, height to apex 21 days after treatment
From the text: (§3) The general Intermediate Retardant Test described in Example 62 was modified by the addition of Sunflowers (SR) and the variety and growth stages at spray are outlined in Table XIII. Apart from the changes indicated, growing conditions for barley, rice and apples were as in Example 62 and growing conditions for Sunflower were as for apples. Test compounds were applied to barley, rice and apples as whole plant (overall) sprays at a rate of 2000 g/ha. Test compounds were applied to sunflowers separately as a foliar only spray at a rate of 2000 g/ha and as a root drench at a rate of 2000 g/ha.
(§4) Barley and rice were assessed for height to topmost ligule 21 days after treatment; apples were assessed for height to apex at 21 days after treatment; and sunflowers were assessed for height to apex at 14 days after treatment. The results are expressed as percentage reduction in height compared with the formulation blank in Table XIV.

Sunflower = experiment: Modified Intermediate Retardant Test, sunflower; assay type: in vivo; settings: 2000 g/ha, height to apex 14 days after treatment; for […] IN HEIGHT, SR (Foliar): foliar only spray; for […] IN HEIGHT, SR (Root): root drench
From the text: as §3, §4

Barley [6] = experiment: Modified Intermediate Retardant Test, barley; assay type: in vivo, Barley (Atem); settings: 2000 g/ha, overall spray, height to topmost ligule 21 days after treatment
From the text: as §3, §4

Rice [7] = experiment: Modified Intermediate Retardant Test, rice; assay type: in vivo, Rice (Ishikari); settings: 2000 g/ha, overall spray, height to topmost ligule 21 days after treatment
From the text: as §3, §4

Plasmopara viticola = experiment: Foliar fungal disease control, Plasmopara viticola (vine); assay type: in vivo; settings: 100 ppm spray plus root drench (approximately 40 ppm a.i/dry soil), one or two days before inoculation

SMILES | disease control, CERCOSPORA ARACHIDICOLA (PEANUT) (Cercospora arachidicola) | G = Greening effect (Wheat) | I = Interligular or internodal length reduction (Wheat) | R = Retardation (Wheat) | T = Tillering or side shooting (Wheat) | G = Greening effect (Barley [1]) | I = Interligular or internodal length reduction (Barley [1]) | R = Retardation (Barley [1]) | T = Tillering or side shooting (Barley [1]) | G = Greening effect (Tomato) | I = Interligular or internodal length reduction (Tomato) | R = Retardation (Tomato) | disease control, ERYSIPHE GRAMINIS (BARLEY) (Erysiphe graminis) | disease control, P[…] (RICE) (Pyricularia oryzae) | disease control, PUCCINIA RECONDITA (WHEAT) (Puccinia recondita) | […] IN HEIGHT, AP (Apple [5]) [%] | […] IN HEIGHT, SR (Foliar) (Sunflower) [%] | […] IN HEIGHT, SR (Root) (Sunflower) [%] | […] IN HEIGHT, BR (Barley [6]) [%] | […] IN HEIGHT, RC (Rice [7]) [%] | further results
CC(C)CCCC(O)(c1cncnc1)C(C)C (centres unmarked) [Compound 7, 2-Methyl-1-(4-methylpentyl)-1-(pyrimidin-5-yl)propan-1-ol] | 0 (60-100% of disease on untreated plants) | 2 (31-60%) | 3 (61-100%) | 3 (61-100%) | 3 (61-100%) | 2 (31-60%) | 2 (31-60%) | 2 (31-60%) | 1 (10-30%) | 2 (31-60%) | 3 (61-100%) | 3 (61-100%) | 4 | 0 (60-100% of disease on untreated plants) | 0 (60-100% of disease on untreated plants) | – | – | – | – | – | G = Greening effect (Maize): 1 (10-30%); I = Interligular or internodal length reduction (Maize): 2 (31-60%); R = Retardation (Maize): 2 (31-60%); percent reduction in plant height at 2000 ppm (Apples; 2000 ppm (Foliar)): 12%; percent reduction in plant height at 2000 µg/mL (Apples; soil, 2000 pmm (Root), root drench): 45%; G = Greening effect (Rice [2]): 1 (10-30%); I = Interligular or internodal length reduction (Rice [2]): 2 (31-60%); R = Retardation (Rice [2]): 2 (31-60%); Percent reduction in rice height vs formulation blank at 500 ppm (Rice [3]; 500 ppm): 31%; Percent reduction in rice height vs formulation blank at 2000 ppm (Rice [3]; 2000 ppm): 45%; G = Greening effect (Apple [4]): 1 (10-30%); I = Interligular or internodal length reduction (Apple [4]): 2 (31-60%); R = Retardation (Apple [4]): 3 (61-100%); percent reduction in plant height at 500 ppm (Spring Barley; 500 ppm): 23%; percent reduction in plant height at 2000 ppm (Spring Barley; 2000 ppm): 47%; disease control, PH[…] (TOMATO) (Phytophthora infestans): 0 (60-100% of disease on untreated plants)
CCCCCC#CC(O)(c1cncnc1)C(C)C (centres unmarked) [Compound 23] | – | 2 (31-60%) | – | 2 (31-60%) | – | 2 (31-60%) | 3 (61-100%) | 3 (61-100%) | 1 (10-30%) | 2 (31-60%) | – | 2 (31-60%) | – | – | – | 50 | 2 | 45 | 29 | 54 | –
CCCCCCC#CC(O)(c1cncnc1)C(C)C (centres unmarked) [Compound 24] | – | 2 (31-60%) | – | 1 (10-30%) | – | – | 2 (31-60%) | 2 (31-60%) | 2* | 2 (31-60%) | – | 1 (10-30%) | – | – | – | 37 | 0 | 3 | 6 | 17 | –
CC(C)(C)/C=C/C(O)(c1cncnc1)C1(C)CC1 (centres unmarked) [Compound 55] | 4 | 1 (10-30%) | 2 (31-60%) | 2 (31-60%) | 1 (10-30%) | – | – | – | 3 (61-100%) | 2 (31-60%) | 2 (31-60%) | 2 (31-60%) | 4 | 0 (60-100% of disease on untreated plants) | 4 | – | – | – | – | – | disease control, PLASMOPARA VITICOLA (VINE) (Plasmopara viticola): 0 (60-100% of disease on untreated plants); disease control, PH[…] (TOMATO) (Phytophthora infestans): 0 (60-100% of disease on untreated plants)
CCC/C=C\C(O)(c1cncnc1)C(C)C (centres unmarked) [Compound 25, 2-methyl-1-(pent-1-ene)-1-(pyrimidin-5-yl)-propan-1-ol] | – | 2 (31-60%) | 1 (10-30%) | 1 (10-30%) | – | 3 (61-100%) | 3 (61-100%) | 3 (61-100%) | 1* | 2 (31-60%) | 1 (10-30%) | 1 (10-30%) | – | – | – | 31 | 0 | 54 | 52 | 55 | –
CCCCC#CC(O)(c1cncnc1)C(C)(C)C (centres unmarked) [Compound 31] | – | 3 (61-100%) | 3 (61-100%) | – | 1 (10-30%) | 3 (61-100%) | 3 (61-100%) | 3 (61-100%) | 1 (10-30%) | 2 (31-60%) | 3 (61-100%) | 3 (61-100%) | – | – | – | 50 | 19 | 51 | 69 | 77 | A = Apical damage (Wheat; 4000 ppm): 1 (10-30%)
